Target: T1, NLRP3 (Homo sapiens, UniProt Q96P20)
T1 construct: host or cells: PMA-differentiated THP-1 cells
Experiment: Measurement of IL-1β production in PMA-differentiated THP-1 cells (NLRP3 hIL1B)
Assay type: cell-based
Experimental: Measurement of IL-1β Production in PMA-Differentiated THP-1 Cells
THP-1 cells were purchased from the American Type Culture Collection and sub-cultured according to instructions from the supplier. Prior to experiments, cells were cultured in RPMI 1640 containing 10% heat inactivated FBS, penicillin (100 units/ml) and streptomycin (100 μg/ml), and maintained in log phase prior to experimental setup. Prior to the experiment THP-1 were treated with PMA (Phorbol 12-myristate 13-acetate) (10 μg/ml) for 24 hours. The day of the experiment the media was removed and attaching cells were treated with trypsin for 2 minutes, cells were then collected, washed with PBS (phosphate buffer saline), spin down, resuspended in 2% heat inactivated FBS with RPMI at a concentration of 1×10^6 cells/ml, and 100 μl was plated in a 96 well plate. Compounds were dissolved in dimethyl sulfoxide (DMSO) and added to the culture medium to achieve desired concentration (e.g. 100, 30, 10, 3, 1, 0.3 or 0.1 μM). Cells were incubated with compounds for 4 hours. Cell free supernatant was collected and the production of IL-1β was evaluated by ELISA. A vehicle only control was run concurrently with each experiment. Final DMSO concentration was 1%.
Measurement of IL-1β Production in PMA-Differentiated THP-1 Cells (Alternative Procedure)
THP-1 cells were purchased from the American Type Culture Collection and sub-cultured according to instructions from the supplier. Prior to experiments, cells were cultured in RPMI 1640 containing 10% heat inactivated FBS, penicillin (100 units/ml), streptomycin (100 μg/ml), HEPES (10 mM) and sodium pyruvate (1 mM) and maintained in log phase prior to experimental setup. Prior to the experiment, THP-1 cells were treated with PMA (Phorbol 12-myristate 13-acetate) (20 μg/ml) overnight. The day of the experiment, the media was removed and attached cells were treated with trypsin for 2 minutes, cells were then collected, washed with PBS (phosphate buffer saline), pelleted by centrifugation and resuspended in 2% heat inactivated FBS with RPMI at a concentration of 50,000 cells/well in a 384 well plate. Cell free supernatant was collected and the production of IL-1β was evaluated by ELISA. Compounds were dissolved in dimethyl sulfoxide (DMSO) and added to the culture medium to achieve desired concentration (e.g. 100, 30, 10, 3, 1, 0.3 or 0.1 μM). Cells were incubated with compounds for 2 hours. A vehicle only control was run concurrently with each experiment. Final DMSO concentration was 1%.
Measurement of IL-1β Production—hTRF Protocol (Second Alternative Procedure)
Serial dilutions of compounds in DMSO were added to low volume 384 well plates at 100 nl/well using an ECHO 550 acoustic dispenser (Labcyte) to achieve final starting concentration of 10 μM in assay.
THP-1 cells in RPMI (Gibco, 11875) media with 10% FBS at a density of 1×10^6 cell/ml in a T175 flask were treated with a final concentration of phorbol 12-myristate 13-acetate (PMA) (Sigma, P1585) of 50 ng/ml overnight at 37° C. at 5% CO2 for differentiation. Cells were harvested the next day after rinsing well with dPBS using 0.5% trypsin. A cell solution was prepared of 1×10^6 cells/ml for 50,000 cells in 50 μl/well in RPMI media with 2% FBS. Cells were plated using a multichannel pipette onto the compound dilutions in Greiner, 384 well, black clear bottom tissue culture treated plates (781090). The plates were incubated in 37° C. incubator at 5% CO2 for 2 hours.
After the 2 hour incubation, the cell plates were spun in the centrifuge for 5 minutes at 1200 rpm. Using the Felix (CyBio), 8 μl of the supernatant was transferred to 384 well, low volume, white proxy plates. (Perkin Elmer, 6008230). A human IL1beta hTRF kit was used to analyze the supernatant (CISBIO, 62HIL1BPEG). The kit instructions were followed for preparing the IL1Beta standard curve and then the antibodies from the kit were diluted 1:40 rather than 1:20 as kit instructed.

T1 sequence (Q96P20 whole entry): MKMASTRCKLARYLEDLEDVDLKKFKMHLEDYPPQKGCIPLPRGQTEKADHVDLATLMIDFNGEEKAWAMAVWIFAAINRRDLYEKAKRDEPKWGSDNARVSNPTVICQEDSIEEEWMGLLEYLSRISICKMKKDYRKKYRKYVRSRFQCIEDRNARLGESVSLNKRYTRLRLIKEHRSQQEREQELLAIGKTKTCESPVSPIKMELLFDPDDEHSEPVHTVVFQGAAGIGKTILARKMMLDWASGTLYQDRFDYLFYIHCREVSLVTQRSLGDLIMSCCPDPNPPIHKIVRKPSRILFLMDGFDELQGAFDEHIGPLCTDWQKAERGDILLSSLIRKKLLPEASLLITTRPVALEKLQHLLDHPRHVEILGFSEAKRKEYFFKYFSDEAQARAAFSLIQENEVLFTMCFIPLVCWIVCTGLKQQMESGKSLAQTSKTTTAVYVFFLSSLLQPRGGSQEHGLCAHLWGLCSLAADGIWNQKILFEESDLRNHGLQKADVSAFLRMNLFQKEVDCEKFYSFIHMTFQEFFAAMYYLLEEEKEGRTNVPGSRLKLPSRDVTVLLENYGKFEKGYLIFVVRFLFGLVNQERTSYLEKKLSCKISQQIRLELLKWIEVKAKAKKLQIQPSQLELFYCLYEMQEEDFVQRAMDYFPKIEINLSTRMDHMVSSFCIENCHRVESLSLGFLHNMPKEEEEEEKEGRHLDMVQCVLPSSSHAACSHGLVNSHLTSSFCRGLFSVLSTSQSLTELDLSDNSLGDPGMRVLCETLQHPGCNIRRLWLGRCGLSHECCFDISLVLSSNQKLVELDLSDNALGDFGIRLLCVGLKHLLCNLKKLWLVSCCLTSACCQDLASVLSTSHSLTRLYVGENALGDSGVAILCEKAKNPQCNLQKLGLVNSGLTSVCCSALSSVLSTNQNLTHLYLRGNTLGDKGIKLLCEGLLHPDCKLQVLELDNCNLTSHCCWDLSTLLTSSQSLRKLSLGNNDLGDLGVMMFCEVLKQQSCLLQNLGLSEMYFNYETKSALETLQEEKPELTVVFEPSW

| EC50 | SMILES |
| --- | --- |
| 720 nM | Nc1nc(N[C@@H]2COC[C@H]2O)c2ccc(-c3ccn[nH]3)cc2n1 (racemic) [Example 25, trans-4-((2-amino-7-(1H-pyrazol-5-yl)quinazolin-4-yl)amino)tetrahydrofuran-3-ol] |
| 800 nM | Nc1nc(N[C@H]2CCCC[C@H]2CO)c2ccc(-c3ccn[nH]3)cc2n1 (racemic) [Example 57] |
| 650 nM | Nc1nc(NC[C@@H]2CCCC[C@@H]2O)c2ccc(-c3ccn[nH]3)cc2n1 (racemic) [Example 77] |
| 670 nM | C[C@]1(O)CC[C@@H](Nc2nc(N)nc3cc(-c4ccn[nH]4)ccc23)C1 (racemic) [Example 107] |
| 4170 nM | C[C@@]1(O)CC[C@@H](Nc2nc(N)nc3cc(-c4ccn[nH]4)ccc23)C1 (racemic) [Example 108] |
| 1950 nM | Nc1nc(NC2C[C@@H](O)[C@H](O)C2)c2ccc(-c3ccn[nH]3)cc2n1 (racemic) [Example 109] |
| 640 nM | Nc1nc(N[C@@H]2CC[C@@H](O)[C@@H]2O)c2ccc(-c3ccn[nH]3)cc2n1 (racemic) [Example 110] |
| 1560 nM | Nc1nc(N[C@H]2C[C@@H](O)C[C@@H]2O)c2ccc(-c3cc[nH]n3)cc2n1 (racemic) [Example 117] |
| 980 nM | Nc1nc(N[C@H]2C[C@H](O)C[C@@H]2O)c2ccc(-c3cc[nH]n3)cc2n1 (racemic) [Example 118] |
| 3650 nM | CO[C@@H]1C[C@@H](Nc2nc(N)nc3cc(-c4ccn[nH]4)ccc23)C[C@H]1O (racemic) [Example 141, rac-(1R,2R,4S)-4-((2-amino-7-(1H-pyrazol-5-yl)quinazolin-4-yl)amino)-2-methoxycyclopentan-1-ol] |
| 3920 nM | Nc1nc(N[C@H]2COC[C@@H](O)C2)c2ccc(-c3ccn[nH]3)cc2n1 (single isomer, unassigned) [Example 12] |
| 1180 nM | Nc1nc(N[C@H]2COC[C@@H](O)C2)c2ccc(-c3ccn[nH]3)cc2n1 (single isomer, unassigned) [Example 13] |
| 240 nM | Nc1nc(N[C@@H]2C[C@H]2c2cccnc2)c2ccc(-c3ccn[nH]3)cc2n1 (single isomer, unassigned) [Example 162, 7-(1H-pyrazol-5-yl)-N4-((trans)-2-(pyridin-3-yl)cyclopropyl)quinazoline-2,4-diamine] |
| 650 nM | Nc1nc(N[C@@H]2C[C@H]2c2cccnc2)c2ccc(-c3ccn[nH]3)cc2n1 (single isomer, unassigned) [Example 163, 7-(1H-pyrazol-5-yl)-N4-((trans)-2-(pyridin-3-yl)cyclopropyl)quinazoline-2,4-diamine] |
| 660 nM | Nc1nc(N[C@H]2CCC[C@@H](O)C2)c2ccc(-c3ccn[nH]3)cc2n1 (single isomer, unassigned) [Example 178, (cis)-3-((2-amino-7-(1H-pyrazol-5-yl)quinazolin-4-yl)amino)cyclohexan-1-ol] |
| 270 nM | Nc1nc(N[C@H]2CCC[C@@H](O)C2)c2ccc(-c3ccn[nH]3)cc2n1 (single isomer, unassigned) [Example 179, (cis)-3-((2-amino-7-(1H-pyrazol-5-yl)quinazolin-4-yl)amino)cyclohexan-1-ol] |
| 170 nM | N#C[C@H]1CC[C@H](Nc2nc(N)nc3cc(-c4ccn[nH]4)ccc23)C1 (single isomer, unassigned) [Example 185, (trans)-3-((2-amino-7-(1H-pyrazol-5-yl)quinazolin-4-yl)amino)cyclopentane-1-carbonitrile] |
| 860 nM | CC(CCO)Nc1nc(N)nc2cc(-c3ccn[nH]3)ccc12 (single isomer, unassigned) [Example 200, 3-((2-amino-7-(1H-pyrazol-5-yl)quinazolin-4-yl)amino)butan-1-ol] |

Continued, molecule first:

| SMILES | EC50 |
| --- | --- |
| CC(C)(O)C(O)CNc1nc(N)nc2cc(-c3ccn[nH]3)ccc12 (racemic) [Example 8, rac-1-((2-amino-7-(1H-pyrazol-5-yl)quinazolin-4-yl)amino)-3-methylbutane-2,3-diol] | 2150 nM |
| CC(O)(CO)CNc1nc(N)nc2cc(-c3ccn[nH]3)ccc12 (racemic) [Example 11, rac-3-((2-amino-7-(1H-pyrazol-5-yl)quinazolin-4-yl)amino)-2-methylpropane-1,2-diol] | 1140 nM |
| Nc1nc(N[C@H]2CCC[C@@H](O)C2)c2c(F)cc(-c3cc[nH]n3)cc2n1 (racemic) [Example 16, cis-3-((2-amino-5-fluoro-7-(1H-pyrazol-3-yl)quinazolin-4-yl)amino)cyclohexan-1-ol] | 780 nM |
| Nc1nc(N[C@H]2CCC[C@H](O)C2)c2c(F)cc(-c3cc[nH]n3)cc2n1 (racemic) [Example 17, trans-3-((2-amino-5-fluoro-7-(1H-pyrazol-3-yl)quinazolin-4-yl)amino)cyclohexan-1-ol] | 950 nM |
| Nc1nc(NCC2CCC(=O)N2)c2ccc(-c3ccn[nH]3)cc2n1 (single isomer, unassigned) [Example 5, 5-(((2-amino-7-(1H-pyrazol-5-yl)quinazolin-4-yl)amino)methyl)pyrrolidin-2-one] | 13000 nM |
| Nc1nc(NCC2CCC(=O)N2)c2ccc(-c3ccn[nH]3)cc2n1 (single isomer, unassigned) [Example 6, 5-(((2-amino-7-(1H-pyrazol-5-yl)quinazolin-4-yl)amino)methyl)pyrrolidin-2-one] | 2110 nM |
| CC(C)(O)C(O)CNc1nc(N)nc2cc(-c3ccn[nH]3)ccc12 (single isomer, unassigned) [Example 9, 1-((2-amino-7-(1H-pyrazol-5-yl)quinazolin-4-yl)amino)-3-methylbutane-2,3-diol] | 1310 nM |
| CC(C)(O)C(O)CNc1nc(N)nc2cc(-c3ccn[nH]3)ccc12 (single isomer, unassigned) [Example 10, 1-((2-amino-7-(1H-pyrazol-5-yl)quinazolin-4-yl)amino)-3-methylbutane-2,3-diol] | 1860 nM |
| CCCC(CCO)Nc1nc(N)nc2cc(-c3ccn[nH]3)ccc12 (single isomer, unassigned) [Example 98, 3-((2-amino-7-(1H-pyrazol-5-yl)quinazolin-4-yl)amino)hexan-1-ol] | 860 nM |
| CCCCC(CCO)Nc1nc(N)nc2cc(-c3ccn[nH]3)ccc12 (single isomer, unassigned) [Example 101, 3-((2-amino-7-(1H-pyrazol-5-yl)quinazolin-4-yl)amino)heptan-1-ol] | 830 nM |
| Cn1ccnc1C(O)CNc1nc(N)nc2cc(-c3ccn[nH]3)ccc12 (single isomer, unassigned) [Example 149, 2-((2-amino-7-(1H-pyrazol-5-yl)quinazolin-4-yl)amino)-1-(1-methyl-1H-imidazol-2-yl)ethan-1-ol] | 4420 nM |
| Cn1ccnc1C(O)CNc1nc(N)nc2cc(-c3ccn[nH]3)ccc12 (single isomer, unassigned) [Example 150, 2-((2-amino-7-(1H-pyrazol-5-yl)quinazolin-4-yl)amino)-1-(1-methyl-1H-imidazol-2-yl)ethan-1-ol] | 2450 nM |
| Nc1nc(NCC2CC2(F)F)c2ccc(-c3cc[nH]n3)cc2n1 (single isomer, unassigned) [Example 198, N4-((2,2-Difluorocyclopropyl)methyl)-7-(1H-pyrazol-3-yl)quinazoline-2,4-diamine] | 70 nM |
| Nc1nc(NCC2CC2(F)F)c2ccc(-c3cc[nH]n3)cc2n1 (single isomer, unassigned) [Example 199, N4-((2,2-Difluorocyclopropyl)methyl)-7-(1H-pyrazol-3-yl)quinazoline-2,4-diamine] | 80 nM |
